Consider 67 compounds from the supplement of paper PMC3974653.

Structures can show the parent of a compound that is named as a salt.

For the assay, the system named is MTT (mouse pheochromocytoma). The experiment in a line: IC50 of cell viability (ATP content). Conditions: (24 or 48 h). The method, boiled down:
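Library compounds in DMSO (23 nl by pintool, 8 concentrations, final 0.5 nM to 46 µM) were applied for 24 or 48 hrs to MTT mouse pheochromocytoma cells that had been cultured overnight at 37°C, 5% CO2 in white 1536-well plates. Cell viability was measured by CellTiter-Glo ATP luminescence, read after 15 minutes, with positive-control wells set at 100% and DMSO wells at 0%. A four-parameter logistic fit of the normalised signals yielded the IC50.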
With `O=C(O)COc1ccccc1/C=N/NC(=O)c1ccncc1` [Aconiazida], the “IC50 of cell viability” value is more than 46 µM.

Take `CC(=O)OCC(=O)Nc1cc(C#N)cc(NC(=O)COC(C)=O)c1Cl` [Acreozast]: the “IC50 of cell viability” value is more than 46 µM.

On to `Cc1ccc(/C(=C\CN2CCCC2)c2cccc(/C=C/C(=O)O)n2)cc1` [Acrivastine], for which the “IC50 of cell viability” value was more than 46 µM.

In the case of `CC(=O)Nc1ccc(CC(=O)O)cc1` [Actarit], the “IC50 of cell viability” value was more than 46 µM.

`CCOc1ccc(S(=O)(=O)O)c2cccnc12` [Actinoquinolum]: the “IC50 of cell viability” value was more than 46 µM.

As for `N\C1=N\C2=C(N=C[N]2COCCO)C(=O)N1` [Acyclovir], the “IC50 of cell viability” value was more than 46 µM.

In the case of `O=C(COc1ccc(Cl)cc1)OCCNC12C[C@H]3C[C@@H](C1)C[C@@H](C2)C3` [Adafenoxate], the “IC50 of cell viability” value is more than 46 µM.

In the case of `COc1ccc(-c2ccc3cc(C(=O)O)ccc3c2)cc1C12CC3CC(CC(C3)C1)C2` [Adapalene], the “IC50 of cell viability” value is more than 46 µM.

In the case of `Nc1ncnc2c1ncn2CCOCP(=O)(O)O` [Adefovir], the “IC50 of cell viability” value is more than 46 µM.

For `Nc1ncnc2c1ncn2[C@@H]1O[C@@H]2COP(=O)(O)O[C@H]2[C@H]1O` [Adenosine 3',5'-cyclic monophosphate], the “IC50 of cell viability” value is more than 46 µM.

For the compound `O=S([O-])CNc1ccc([S+](=O)([O-])c2ccc(NCS(=O)[O-])cc2)cc1` [Adesulfone sodium], the “IC50 of cell viability” value was more than 46 µM.

In the case of `O=C(O)CCCCC(=O)O` [Adipic acid], the “IC50 of cell viability” value was more than 46 µM.

Regarding `CNCC(=O)c1ccc(O)c(O)c1` [Adrenone], the “IC50 of cell viability” value is more than 46 µM.

Take `COc1cccc2c1C(=O)c1c(O)c3c(c(O)c1C2=O)C[C@](O)(C(=O)CO)C[C@@H]3O[C@H]1C[C@H](N)[C@@H](O)[C@H](C)O1` [Adriamycin-DNA hydrochloride]: the “IC50 of cell viability” value was more than 46 µM.

In the case of `CC[C@@H]1[C@@H]2C[C@H]3[C@H]4N(C)c5ccccc5[C@@]45C[C@H]([C@H]2[C@H]5O)[N@@]3[C@H]1O` [Ajmaline], the “IC50 of cell viability” value is more than 46 µM.

With `C=CCN1C(=O)C(CC(C)C)NC1=S` (configuration not stated) [Albutoin], the “IC50 of cell viability” value is more than 46 µM.

Take `C=CCOc1ccc(CC(=O)O)cc1Cl` [Alclofenac]: the “IC50 of cell viability” value is more than 46 µM.

Turning to `CCC(=O)OCC(=O)[C@@]1(OC(=O)CC)[C@H](C)C[C@@H]2[C@@H]3[C@H](Cl)C\C4=C\C(=O)\C=C/[C@@]4(C)[C@H]3[C@@H](O)C[C@@]12C` [Alclometasone dipropionate], the “IC50 of cell viability” value is more than 46 µM.

Take `C=CC[N@@H+]1/C(=C/CO)[C@@H]2C[C@H]3[C@H]1CC[C@]31c3ccccc3N3/C=C4/[C@@H]5C[C@@H]6[C@H](CC[C@@]67c6ccccc6N(/C=C\2[C@H]31)[C@@H]47)[N@@H+](CC=C)/C5=C\CO` [Alcuronium chloride]: the “IC50 of cell viability” value is more than 46 µM.

For the compound `NCCCC(O)(P(=O)(O)O)P(=O)(O)O` [Alendronate sodium], the “IC50 of cell viability” value was more than 46 µM.

Turning to `CC(=O)OCC(=O)[C@@H]1CC[C@@H]2[C@H]3CC[C@H]4C[C@@H](O)CC[C@]4(C)[C@@H]3C(=O)C[C@]21C` [Alfadolone acetate], the “IC50 of cell viability” value is more than 46 µM.

As to `COc1cc2nc(N(C)CCCNC(=O)[C@H]3CCCO3)nc(N)c2cc1OC` [Alfuzosin hydrochloride], the “IC50 of cell viability” value was more than 46 µM.

Take `C=CCc1cc(OC)c(O)c(C(=O)NCCO)c1` [Alibendol]: the “IC50 of cell viability” value was more than 46 µM.

For `C=CCN(C1=NCCN1)c1c(Cl)cccc1Cl` [Alinidine], the “IC50 of cell viability” value is more than 46 µM.

`COCCCOc1cc(C[C@@H](C[C@H](N)[C@@H](O)C[C@H](C(=O)NCC(C)(C)C(N)=O)C(C)C)C(C)C)ccc1OC` [Aliskiren]: the “IC50 of cell viability” value was more than 46 µM.

Consider `NC(=O)N[C@H]1NC(=O)NC1=O` [Allantoin], for which the “IC50 of cell viability” value was more than 46 µM.

For `CC(C)=CC1C(C(=O)OC\2CC(=O)\C(=C2C)CC=C)C1(C)C` (configuration not stated) [Allethrin], the “IC50 of cell viability” value is more than 46 µM.

`COC(=O)C1C(OC(=O)c2ccccc2)CC2CCC1N2C` (configuration not stated) [Allococaine]: the “IC50 of cell viability” value is more than 46 µM.

As for `Oc1ncnc2[nH]ncc12` [Allopurinol], the “IC50 of cell viability” value is more than 46 µM.

For the compound `C=CCN=C=S` [Allyl isothiocyanate], the “IC50 of cell viability” value is more than 46 µM.

Take `C=CC[C@]1(O)CCC2C3CCC4=CCCCC4C3CCC21C` (some centres not stated) [Allylestrenol]: the “IC50 of cell viability” value was more than 46 µM.

For `C=CCNC(N)=S` [Allylthiourea], the “IC50 of cell viability” value is more than 46 µM.

For `Cc1cn([C@H]2CC(F)[C@@H](CO)O2)c(=O)[nH]c1=O` (some centres not stated) [Alovudine], the “IC50 of cell viability” value is more than 46 µM.

`Cc1c(C)c2c(c(C)c1O)CC[C@@](C)(CCC[C@H](C)CCC[C@H](C)CCCC(C)C)O2` [Alpha-Vitamin E]: the “IC50 of cell viability” value was more than 46 µM.

With `CCCN(CCC)C(=O)Cc1c(-c2ccc(Cl)cc2)nc2ccc(Cl)cn12` [Alpidem], the “IC50 of cell viability” value is more than 46 µM.

Consider `CCCCC[C@H](O)/C=C\[C@@H]1[C@H](O)CC(=O)[C@@H]1CCCCCCC(=O)O` [Alprostadil], for which the “IC50 of cell viability” value is more than 46 µM.

Take `O=C(O)CN1C(=O)c2cccc3cccc(c23)C1=O` [Alrestatin]: the “IC50 of cell viability” value is more than 46 µM.

With `O=C(c1ccc(F)cc1)C1CCN(CCn2c(=S)[nH]c3ccccc3c2=O)CC1` [Altanserin hydrochloride], the “IC50 of cell viability” value was more than 46 µM.

Take `C=CCC1(O)CCC2C3CCC4=CC(=O)CCC4=C3C=CC21C` (configuration not stated) [Altrenogest]: the “IC50 of cell viability” value is more than 46 µM.

For `CN(C)c1nc(N(C)C)nc(N(C)C)n1` [Altretamine], the “IC50 of cell viability” value was more than 46 µM.

As to `CCCCCCCCCCCCCCCCCC(=O)[O][Al]([OH])[OH]` [Aluminum monostearate], the “IC50 of cell viability” value was more than 46 µM.

Take `CC(=O)[O][Al]([OH])[O]C(C)=O` [Aluminum subacetate]: the “IC50 of cell viability” value was more than 46 µM.

`CCN(CCCc1ccccc1)CCCc1ccccc1.O=C(O)CC(O)(CC(=O)O)C(=O)O` [Alverine citrate salt]: the “IC50 of cell viability” value was more than 46 µM.

On to `Nc1ncnc(Nc2ccccc2)n1` [Amanozine], for which the “IC50 of cell viability” value is more than 46 µM.

Take `CC1(C)SC2[C@@H](/N=C/N3CCCCCC3)C(=O)N2[C@H]1C(=O)O` (some centres not stated) [Amdinocillin]: the “IC50 of cell viability” value was more than 46 µM.

In the case of `Nc1c(CC(=O)[O-])cccc1C(=O)c1ccccc1` [Amfenac Sodium], the “IC50 of cell viability” value was more than 46 µM.

Turning to `NCCCNCCSP(=O)(O)O` [Amifostine], the “IC50 of cell viability” value was more than 46 µM.

For `NCC[C@H](O)C(=O)N[C@@H]1C[C@H](N)[C@@H](O[C@H]2O[C@H](CN)[C@@H](O)[C@H](O)[C@H]2O)[C@H](O)[C@H]1O[C@H]1O[C@H](CO)[C@@H](O)[C@H](N)[C@H]1O` [Amikacin sulfate], the “IC50 of cell viability” value was more than 46 µM.

As to `O=C(O)CCCCCCNC1c2ccccc2CCc2ccccc21` [Amineptine], the “IC50 of cell viability” value is more than 46 µM.

`NCCCCCC(=O)O` [Aminocaproic acid]: the “IC50 of cell viability” value is more than 46 µM.

For `Nc1ccc(C(=O)NCC(=O)O)cc1` [Aminohippuric acid], the “IC50 of cell viability” value is more than 46 µM.

Take `CCCCc1oc2ccccc2c1C(=O)c1cc(I)c(OCCN(CC)CC)c(I)c1` [Amiodarone hydrochloride]: the “IC50 of cell viability” value is more than 46 µM.

Regarding `CCN1CCCC1CNC(=O)c1cc([S+](=O)([O-])CC)c(N)cc1OC` (configuration not stated) [Amisulpride], the “IC50 of cell viability” value is more than 46 µM.

As for `CN(C)CCC=C1c2ccccc2CCc2ccccc21` [Amitriptyline], the “IC50 of cell viability” value was more than 46 µM.

On to `CCOC(=O)C/1=C(COCCN)/N\C(=C(C1C2=C(Cl)C=CC=C2)\C(=O)OC)C` (configuration not stated) [Amlodipine besylate], for which the “IC50 of cell viability” value was more than 46 µM.

Take `CCN(CC)Cc1cc(Nc2ccnc3cc(Cl)ccc23)ccc1O.Cl.Cl.O.O` [Amodiaquin dihydrochloride dihydrate]: the “IC50 of cell viability” value was more than 46 µM.

On to `COc1cc(C(=O)OC(COCCC(C)C)CN2CCOCC2)cc(OC)c1OC` (configuration not stated) [Amoproxan], for which the “IC50 of cell viability” value is more than 46 µM.

Turning to `CCNC(=O)N1CCN(CCCC(c2ccc(F)cc2)c2ccc(F)cc2)CC1.Cl` [Amperozide hydrochloride], the “IC50 of cell viability” value was more than 46 µM.

Regarding `C[C@@H]1[C@H](O)[C@@H](C)/C=C/C=C/C=C/C=C/C=C/C=C/C=C/[C@H](O[C@@H]2O[C@H](C)[C@@H](O)[C@H](N)[C@@H]2O)C[C@@H]2O[C@](O)(C[C@@H](O)C[C@@H](O)[C@H](O)CC[C@@H](O)C[C@@H](O)CC(=O)O[C@H]1C)C[C@H](O)[C@H]2C(=O)O` [Amphotericin B], the “IC50 of cell viability” value is more than 46 µM.

Take `CC1(C)SC2C(NC(=O)C(N)c3ccccc3)C(=O)N2C1C(=O)O` (configuration not stated) [Ampicillin A]: the “IC50 of cell viability” value was more than 46 µM.

Take `CC(C)CN(C[C@@H](O)[C@H](Cc1ccccc1)NC(=O)O[C@H]1CCOC1)[S+](=O)([O-])c1ccc(N)cc1` [Amprenavir]: the “IC50 of cell viability” value was more than 46 µM.

Take `CCCc1ncc(C[n+]2ccccc2C)c(N)n1.Cl.[Cl-]` [Amprolium hydrochloride]: the “IC50 of cell viability” value is more than 46 µM.

In the case of `CN1N(C2=CC=CC=C2)C(=O)C(=C1/C)/N` [Ampyrone], the “IC50 of cell viability” value is more than 46 µM.

As for `Nc1cc(-c2ccncc2)c[nH]c1=O` [Amrinone], the “IC50 of cell viability” value is more than 46 µM.

Turning to `COc1cc(N[S+](C)(=O)[O-])ccc1Nc1c2ccccc2nc2ccccc12.Cl` [Amsacrine hydrochloride], the “IC50 of cell viability” value was more than 46 µM.

In the case of `CC[C@](C)(CN(C)C)OC(=O)c1ccccc1` [Amyleine hydrochloride], the “IC50 of cell viability” value is more than 46 µM.

`O=C1CN2Cc3c(ccc(Cl)c3Cl)NC2=N1` [Anagrelide hydrochloride]: the “IC50 of cell viability” value is more than 46 µM.
